In patent US20260102501A1, “ANTI-CANCER NUCLEAR HORMONE RECEPTOR-TARGETING COMPOUNDS” (Nuvation Bio Inc., priority 2022, published 2026) one finds IC50 and PR antagonism data, which are given here for four compounds.

Where two headings read alike, the source gives them in different places. Numbered stars: 1 amine (or outer) side, 2 acyl side, 3 side chain; on linkers, the order of the positions; unused ones are H or OH. Square brackets hold non-standard residues; d marks the D form. Peptide text beside a SMILES is read from it. * marks the point of attachment. X1 = CC(=O)O[C@]1(C(C)=O)CC[C@H]2[C@@H]3CCC4=CC(=O)CCC4=C3[C@@H](c3ccc(*)cc3)C[C@@]21C; Exatecan = CC[C@@]1(O)C(=O)OCc2c1cc1n(c2=O)Cc2c-1nc1cc(F)c(C)c3c1c2[C@@H](N*)CC3; NHCH2OCH2CO = O=C(COCN[*:1])[*:2]; Sar = CNCC(=O)O A value given as a limit tells only on which side of the number the result lay.

One assay has as its system IEC6 cells. Put plainly: Cell viability assay (CellTiterGlo). As to conditions: Rattus norvegicus, IEC-6, 144 h, read-out: IEC-6 (IC50, nM).
Assay [1] has as its target T1, Progesterone PR-B receptors from human breast carcinoma T47D cells (Homo sapiens, UniProt P06401).
T1 sequence (P06401 1-933): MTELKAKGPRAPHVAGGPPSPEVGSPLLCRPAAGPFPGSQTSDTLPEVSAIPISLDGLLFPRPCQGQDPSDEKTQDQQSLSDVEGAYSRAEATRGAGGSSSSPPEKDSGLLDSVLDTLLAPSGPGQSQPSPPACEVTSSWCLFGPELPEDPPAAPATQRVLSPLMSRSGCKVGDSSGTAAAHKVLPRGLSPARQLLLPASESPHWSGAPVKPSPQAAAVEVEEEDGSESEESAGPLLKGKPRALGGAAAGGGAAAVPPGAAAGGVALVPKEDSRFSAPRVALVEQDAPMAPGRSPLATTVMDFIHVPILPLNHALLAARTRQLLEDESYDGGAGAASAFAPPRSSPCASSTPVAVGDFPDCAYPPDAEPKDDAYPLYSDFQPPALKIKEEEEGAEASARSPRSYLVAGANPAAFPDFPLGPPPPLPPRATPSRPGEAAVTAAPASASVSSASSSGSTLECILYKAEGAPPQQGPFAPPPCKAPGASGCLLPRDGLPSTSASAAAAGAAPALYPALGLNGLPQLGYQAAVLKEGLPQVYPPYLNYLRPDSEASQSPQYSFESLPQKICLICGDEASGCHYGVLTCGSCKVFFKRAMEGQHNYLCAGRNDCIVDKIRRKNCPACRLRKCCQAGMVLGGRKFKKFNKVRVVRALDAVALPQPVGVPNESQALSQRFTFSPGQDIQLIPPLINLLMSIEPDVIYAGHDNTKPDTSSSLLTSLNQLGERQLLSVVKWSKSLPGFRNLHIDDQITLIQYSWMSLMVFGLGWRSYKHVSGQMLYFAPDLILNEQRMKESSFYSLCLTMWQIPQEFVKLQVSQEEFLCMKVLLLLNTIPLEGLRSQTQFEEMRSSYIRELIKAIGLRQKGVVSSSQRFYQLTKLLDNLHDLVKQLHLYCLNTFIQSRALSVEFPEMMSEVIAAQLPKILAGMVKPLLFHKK
Put plainly: PR binding assay ([3H] Progesterone displacement).

In assay [2] the target is T2, full-length androgen receptor (HEK293 cells stably expressing) (Homo sapiens, UniProt P10275).
T2 sequence (P10275 1-920): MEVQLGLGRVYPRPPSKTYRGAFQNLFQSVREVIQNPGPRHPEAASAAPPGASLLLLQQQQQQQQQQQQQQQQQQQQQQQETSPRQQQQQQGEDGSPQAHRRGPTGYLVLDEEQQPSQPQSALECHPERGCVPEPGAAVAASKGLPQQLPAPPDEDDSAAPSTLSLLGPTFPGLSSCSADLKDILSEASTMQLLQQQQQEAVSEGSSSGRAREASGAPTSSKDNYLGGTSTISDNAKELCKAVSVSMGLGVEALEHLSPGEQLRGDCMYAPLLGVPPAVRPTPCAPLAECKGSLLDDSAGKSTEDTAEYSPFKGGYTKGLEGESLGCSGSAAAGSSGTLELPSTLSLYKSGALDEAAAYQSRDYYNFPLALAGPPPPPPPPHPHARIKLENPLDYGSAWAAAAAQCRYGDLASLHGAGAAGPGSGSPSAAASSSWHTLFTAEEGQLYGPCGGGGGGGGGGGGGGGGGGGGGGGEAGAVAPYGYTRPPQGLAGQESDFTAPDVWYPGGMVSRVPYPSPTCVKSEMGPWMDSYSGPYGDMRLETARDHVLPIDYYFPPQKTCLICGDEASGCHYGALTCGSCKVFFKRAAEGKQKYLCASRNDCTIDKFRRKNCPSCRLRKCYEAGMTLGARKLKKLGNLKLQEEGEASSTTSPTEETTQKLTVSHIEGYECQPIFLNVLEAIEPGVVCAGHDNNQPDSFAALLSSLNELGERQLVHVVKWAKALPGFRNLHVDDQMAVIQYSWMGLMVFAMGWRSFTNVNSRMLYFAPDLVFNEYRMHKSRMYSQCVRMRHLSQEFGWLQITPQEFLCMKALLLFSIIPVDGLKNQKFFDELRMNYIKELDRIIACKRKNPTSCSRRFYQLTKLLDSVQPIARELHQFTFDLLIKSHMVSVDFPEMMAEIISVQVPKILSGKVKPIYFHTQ
In words: AR antagonism assay (luciferase reporter).

A further assay concerns T47D cells. Put plainly: Cell viability assay (CellTiterGlo). In kind it is cell-based. As to conditions: Homo sapiens, 144 h.
The test system of the next assay is 22Rv1 cells. In words: Cell viability assay (CellTiterGlo). Conditions: Homo sapiens, 22Rv1, 144 h, read-out: 22RV1 (IC50, nM). Background: Cellular ATP, detected with luciferase, serves as a proxy for viable cell number.
The target in assay [3] is T3, Progesterone Receptor (PR)-LBD and coactivator peptide (Homo sapiens, UniProt P06401).
T3 sequence (P06401 679-913 limits assumed): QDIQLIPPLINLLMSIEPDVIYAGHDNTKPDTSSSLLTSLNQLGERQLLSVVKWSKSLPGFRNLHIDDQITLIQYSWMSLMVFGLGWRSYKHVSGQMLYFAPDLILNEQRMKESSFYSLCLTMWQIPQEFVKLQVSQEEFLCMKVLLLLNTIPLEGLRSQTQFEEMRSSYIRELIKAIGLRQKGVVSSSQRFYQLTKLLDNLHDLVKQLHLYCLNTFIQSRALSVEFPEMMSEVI
In words: PR coactivator antagonist assay. As to conditions: 2.5 nM PR-LBD, 10 nM progesterone-induced fluorescence response.

The mark [4] stands for this setting: 6 days incubation, CellTiterGlo, read-out: T47D (IC50).

As to `CC[C@@]1(O)C(=O)OCc2c1cc1n(c2=O)Cc2c-1nc1cc(F)c(C)c3c1c2[C@@H](NC(=O)COCCCCCCN(C)c1ccc([C@H]2C[C@@]4(C)[C@@H](CC[C@]4(OC(C)=O)C(C)=O)[C@@H]4CCC5=CC(=O)CCC5=C42)cc1)CC3` [Compound No. 47, (8S,11R,13S,14S,17R)-17-acetyl-11-(4-((6-(2-(((1S,9S)-9-ethyl-5-fluoro-9-hydroxy-4-methyl-10,13-dioxo-2,3,9,10,13,15-hexahydro-1H,12H-benzo[de]pyrano [3′,4′:6,7]indolizino[1,2-b]quinolin-1-yl)amino)-2-oxoethoxy)hexyl)(methyl)amino)phenyl)-13-methyl-3-oxo-2,3,6,7,8,11,12,13,14,15,16,17-dodecahydro-1H-cyclopenta[a]phenanthren-17-yl acetate], the IC50 in the assay on IEC6 cells is 101 to 1000 nM; in assay [1], less than 10 nM; in assay [2], 10 to 100 nM; in the assay with T47D cells (setting [4]), 10 to 100 nM.
On to `CC[C@@]1(O)C(=O)OCc2c1cc1n(c2=O)Cc2c-1nc1cc(F)c(C)c3c1c2[C@@H](NC(=O)COCNC(=O)CNC(=O)[C@H](Cc1ccccc1)NC(=O)CNC(=O)CN(C)c1ccc([C@H]2C[C@@]4(C)[C@@H](CC[C@]4(OC(C)=O)C(C)=O)[C@@H]4CCC5=CC(=O)CCC5=C42)cc1)CC3` [Compound 34, (8S,11R,13S,14S,17R)-17-Acetyl-11-(4-(((S)-10-benzyl-1-(((1S,9S)-9-ethyl-5-fluoro-9-hydroxy-4-methyl-10,13-dioxo-2,3,9,10,13,15-hexahydro-1H,12H-benzo[de]pyrano[3′,4′:6,7]indolizino[1,2-b]quinolin-1-yl)amino)-1,6,9, 12,15-pentaoxo-3-oxa-5,8,11,14-tetraazahexadecan-16-yl)(methyl)amino)phenyl)-13-methyl-3-oxo-2,3,6,7,8,11,12,13,14,15,16,17-dodecahydro-1H-cyclopenta[a]phenanthren-17-yl Acetate] (X1-[Sar]GFG[NHCH2OCH2CO]-Exatecan), for which the IC50 in the assay on 22Rv1 cells was 101 to 1000 nM; in the assay on IEC6 cells it was 101 to 1000 nM; in assay [1] it was less than 10 nM; in assay [2] it was greater than 1000 nM; with T47D cells (read-out: T47D (IC50, nM)) it was 101 to 1000 nM. Further, in assay [3], the PR antagonism entry is on record as “a (IC50 =< 10 nM)”.
As for `CC[C@@]1(O)C(=O)OCc2c1cc1n(c2=O)Cc2cc3c(CN(C)C)c(OCC4CCN(C(=O)CN(C)c5ccc([C@H]6C[C@@]7(C)[C@@H](CC[C@]7(OC(C)=O)C(C)=O)[C@@H]7CCC8=CC(=O)CCC8=C76)cc5)CC4)ccc3nc2-1` [Compound No. 19, (8S,11R,13S,14S,17R)-17-Acetyl-11-(4-((2-(4-((((S)-10-((dimethylamino)methyl)-4-ethyl-4-hydroxy-3,14-dioxo-3,4,12,14-tetrahydro-1H-pyrano[3′,4′:6,7]indolizino[1,2-b]quinolin-9-yl)oxy)methyl)-piperidin-1-yl)-2-oxoethyl)(methyl)amino)phenyl)-13-methyl-3-oxo-2,3,6,7,8,11,12,13,14,15,16,17-dodeca-hydro-1H-cyclopenta[a]phenanthren-17-yl acetate], the 50% inhibitory concentration (IC50) in the assay with IEC6 cells was greater than 1000 nM; in assay [1], less than 10 nM; in assay [2], greater than 1000 nM; in the assay with T47D cells (setting [4]) it was 101 to 1000 nM. For the same compound, the PR antagonism entry in assay [3] was “a (IC50 =< 10 nM)”.
For the compound `CC[C@@]1(O)C(=O)OCc2c1cc1n(c2=O)Cc2c-1nc1cc(F)c(C)c3c1c2[C@@H](N(C)C(=O)COCC1CCN(CCCCCCCN(C)c2ccc([C@H]4C[C@@]5(C)[C@@H](CC[C@]5(OC(C)=O)C(C)=O)[C@@H]5CCC6=CC(=O)CCC6=C54)cc2)CC1)CC3` [Compound 55, (8S,11R,13S,14S,17R)-17-acetyl-11-(4-((7-(4-((2-(((1S,9S)-9-ethyl-5-fluoro-9-hydroxy-4-methyl-10,13-dioxo-2,3,9,10,13,15-hexahydro-1H,12H-benzo[de]pyrano[3′,4′:6,7]indolizino[1,2-b]quinolin-1-yl)(methyl)amino)-2-oxoethoxy)methyl)piperidin-1-yl)heptyl)(methyl)amino)phenyl)-13-methyl-3-oxo-2,3,6,7,8,11,12,13,14,15,16,17-dodecahydro-1H-cyclopenta[a]phenanthren-17-yl acetate], the IC50 in the assay on IEC6 cells is greater than 1000 nM; in assay [1], less than 10 nM; in assay [2], 101 to 1000 nM; in the assay on T47D cells (setting [4]) it was 101 to 1000 nM.

What is called IC50 is the concentration that gives 50% inhibition.
